Experimental data: patent US12286418B2, “Compounds and methods for treating or preventing bacterial infections” (priority 2019, dated 2025)

Columns and labels:
OXA-10 = OXA-10 (Pseudomonas aeruginosa, UniProt P14489); experiment: Inhibition of other OXA enzymes (nitrocefin reporter): OXA-10; format: biochemical
Description: (§1) Compounds were tested for inhibition of a given OXA enzyme from hydrolyzing nitrocefin using a Tecan plate reader. […] A control with no compound was included in each run. For each compound concentration, the velocity of nitrocefin hydrolysis was determined at 482 nm and fit to the Morrison equation. […] The average Ki of separate experiments, each of which consisted of duplicate runs, is reported and error was quantified as the standard deviation.
(§2) The high sequence diversity of class D β-lactamases has made it difficult to find a class-wide inhibitor. The inhibition activity of CDD-97 was tested against other OXA-enzymes of varying sequence identity, to assess its spectrum of activity (Table 2). OXA-10 is regarded as the canonical OXA, however it is not a major clinical threat as it mainly hydrolyzes penicillins. OXA-58 is another carbapenemase unable to hydrolyze extended-spectrum cephalosporins like OXA-48. Both OXA-48 and OXA-58 are predominantly found in gram-negative bacteria, however OXA-48 is prevalent in the Enterobacteriaceae family (mainly Klebsiella pneumoniae), while OXA-58 is found in the Moraxellaceae family (mainly Acintobacter baumannii). While K. pneumoniae is more rampant in the clinics and most OXA-mediated carbapenem is due to OXA-48, A. baumannii nosocomial infections are a growing issue. OXA-163 is an OXA-48 like enzyme also prevalent in Enterobacteriaceae. […]

OXA-48 [1] = biological target: T1, OXA-48 (Klebsiella pneumoniae, UniProt Q6XEC0); experiment: OXA-48 inhibition assay using nitrocefin as reporter; format: biochemical; parameters: His-tag (N, cleaved yes); made in house; host or cells: E. coli BL21(DE3), pET28a
Description: Nitrocefin, a chromogenic β-lactam substrate, was used as a reporter in all inhibition assays with the various OXA enzymes and various compounds. Nitrocefin is not stable in aqueous solution long-term. For these assays, nitrocefin stocks were prepared in DMSO, stored at −20° C. and used within 2 weeks of dissolving. To avoid freeze-thawing, fresh stocks were always used. The Km of nitrocefin was determined prior to inhibition assays by performing steady state kinetics. Assays were performed using a DU800 spectrophotometer at room temperature in 50 mM HEPES pH 7.5, 15 mM NaHCO3, and 0.02% tween 20 buffer. Hydrolyzed nitrocefin was detected at 482 nm. For a single experiment, a series of at least 5 nitrocefin concentrations were tested against the given enzyme in duplicate and the initial velocities were measured and fit to the Michaelis-Menten equation. Experiments were repeated twice, and error reported is the standard error of the mean.
as §1
The activity of these derivatives was assessed using inhibition assays with purified OXA-48. Compounds were tested for the ability to inhibit OXA-48 from hydrolyzing nitrocefin, a chromogenic β-lactam substrate routinely used in β-lactamase inhibition assays. Nitrocefin contains a conjugated ring system that is readily hydrolyzed and produces a visible color shift from yellow to red upon hydrolysis (O'Callaghan, et al., 1972, Antimicrob. Agents Chemother. 1:283-288). The rate of nitrocefin hydrolysis in the presence of a constant amount of OXA-48 and increasing concentrations of a given compound of interest was monitored at 482 nm. These rates were plotted against compound concentration to determine the inhibition constant (Ki) against OXA-48. […] SPR was performed using 6×-His-OXA-48 enzyme that was amine-coupled on a Ni-NTA Chip. Meropenem, which covalently binds and inhibits OXA-48, was used as a positive control.

OXA-48 [2] = biological target: T1, OXA-48; experiment: Surface plasmon resonance binding to immobilized 6x-His-OXA-48; parameters: His-tag (N, cleaved yes); made in house; host or cells: E. coli BL21(DE3), pET28a; details: SPR
Description: 6×-His-OXA-48 was capture/amine-coupled on a Ni-NTA Chip at a density of ˜5000 RU. Running buffer was 10 mM HEPES pH 7.4, 150 NaCl, 50 mM NaHCO3, 0.005% Tween-20, 2% DMSO. Concentration gradients of each compound were created from 0-15 μM using OneStep Injections in at least triplicates for meropenem and CDD-97.
Synthon-derivatives were created, without DNA tags, based on high OXA-48 enrichment and minimal NTC enrichment. The activity of these derivatives was assessed using inhibition assays with purified OXA-48. Compounds were tested for the ability to inhibit OXA-48 from hydrolyzing nitrocefin, a chromogenic β-lactam substrate routinely used in β-lactamase inhibition assays. Nitrocefin contains a conjugated ring system that is readily hydrolyzed and produces a visible color shift from yellow to red upon hydrolysis (O'Callaghan, et al., 1972, Antimicrob. Agents Chemother. 1:283-288). The rate of nitrocefin hydrolysis in the presence of a constant amount of OXA-48 and increasing concentrations of a given compound of interest was monitored at 482 nm. These rates were plotted against compound concentration to determine the inhibition constant (Ki) against OXA-48. Compounds with promising activity were also assessed for binding using surface plasmon resonance (SPR). SPR was performed using 6×-His-OXA-48 enzyme that was amine-coupled on a Ni-NTA Chip. Meropenem, which covalently binds and inhibits OXA-48, was used as a positive control.

OXA-163 = OXA-163 (Klebsiella pneumoniae, UniProt Q6XEC0, DEL214-217/S212D); experiment: Inhibition of other OXA enzymes (nitrocefin reporter): OXA-163; format: biochemical, Enterobacteriaceae
Description: as §1, §2

T1 sequence (Q6XEC0 23-265, looked up): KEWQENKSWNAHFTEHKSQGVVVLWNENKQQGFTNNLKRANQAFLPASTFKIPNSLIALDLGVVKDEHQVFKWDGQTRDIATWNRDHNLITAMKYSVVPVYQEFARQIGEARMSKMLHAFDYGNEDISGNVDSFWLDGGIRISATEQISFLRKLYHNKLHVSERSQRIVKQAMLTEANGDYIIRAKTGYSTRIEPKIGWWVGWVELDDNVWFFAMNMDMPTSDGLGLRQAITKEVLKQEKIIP
OXA-10, sequence (P14489 20-266): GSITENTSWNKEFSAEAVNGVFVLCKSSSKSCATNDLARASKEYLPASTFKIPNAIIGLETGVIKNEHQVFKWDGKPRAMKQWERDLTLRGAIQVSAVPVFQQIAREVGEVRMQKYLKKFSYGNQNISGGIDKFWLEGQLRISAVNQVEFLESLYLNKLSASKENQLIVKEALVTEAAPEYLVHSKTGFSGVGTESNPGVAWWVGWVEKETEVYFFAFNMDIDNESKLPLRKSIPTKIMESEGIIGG
OXA-163, sequence (Q6XEC0 23-211, added parts left off, stated change not applied): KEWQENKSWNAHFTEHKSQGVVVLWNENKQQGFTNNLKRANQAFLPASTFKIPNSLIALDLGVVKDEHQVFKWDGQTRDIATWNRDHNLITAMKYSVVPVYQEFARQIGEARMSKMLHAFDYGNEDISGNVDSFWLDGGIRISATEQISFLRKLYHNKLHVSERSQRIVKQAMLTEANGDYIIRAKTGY

With `CCOc1ccccc1N1CCN(c2ncnc(N3CCC(C(=O)O)CC3)n2)CC1` [CDD-97, 1-(4-(4-(2-ethoxyphenyl)piperazin-1-yl)-1,3,5-triazin-2-yl)piperidine-4-carboxylic acid] the Ki (OXA-10) was 61000 ± 27000 nM, the “Ki fold less potent than against OXA-48” value (OXA-10; OXA-10 vs OXA-48) was “about 100 fold” and the “potency/activity against OXA-48 in words” value (OXA-48 [1]; purified OXA-48, compared with CDD-97 where a derivative) was “sub-micromolar Ki”. The Ki (OXA-48 [1]; purified OXA-48, nitrocefin hydrolysis, Morrison fit) was 530 ± 80 nM, the “KD fold lower (weaker) than that of Meropenem” value (OXA-48 [2]; OXA-48) was roughly 3 fold and the Kd (OXA-48 [2]; immobilized His-OXA-48) was 1200 ± 4 nM. It also gave a Ki (OXA-163) of 440 ± 20 nM.
